According to patent US6545053B1, “Tricyclic compounds and drug compositions containing same” (Asahi Kasei Kogyo Kabushiki Kaisha, priority 1996, dated 2003):
Structures can show the parent of a compound that is named as a salt. Where two headings read alike, the source gives them in different places.

Columns and labels:
human β3 = target: T1, human β3 (Homo sapiens, UniProt P13945); assay: Human β3-agonist activity (cAMP in CHO cells transfected with human β3 gene); format: cell-based; details: for Emax: CHO, read-out: Intrinsic activity (%)
T1 construct: And then full length of human β3 gene was cloned using this fragment as a probe; expressed in transfected cells; host or cells: CHO cells (Chinese hamster ovary), pcDNA3 vector
Description: Human β3-agonist Activity
Human β3-agonist activity was examined using CHO cells (chinese hamster ovarian cells) to which pcDNA3 (in vitrogen) cells inserted human β3 gene was transfected. Human β3 fragment was obtained by PCR using human fat tissue cDNA (supplied from Clontech) with a β3 primer [Krief et al, J. Clin. Invest.
The cells were cultured in a HAM F-12 medium containing 10% of fetal bovine serum, 400 μg/ml of Geneticin (Gibco BRL). 100 U/ml penicillin and 100 μg/ml streptomycin. 5×10^5 cells were placed on a 6-well plate and cultured for 24 hours, after which the medium was changed to a HAM F-12 medium without serum and was kept for 2 hours. Each test compound was first dissolved in DMSO, and then diluted with a HAM F-12 medium containing 1 mM isobutylmethyl xanthine and 1 mM ascorbic acid. A 10-fold dilution in the range of 10^−5 to 10^−12 M was added into the cell.
After culturing for 30 minutes, culture medium was withdrawn, 0.5 ml of 1 N NaOH was added and was kept for 20 minutes. And then 0.5 ml of 1 N acetic acid was added with subsequent agitation and centrifugation. Finally the concentration of cAMP were analyzed using cAMP EIA KIT (Cayman). […] Isoprotelenol was purchased from Research Biochimicals International.

canine adipocytes = assay: Lipolytic activity in canine fatty cell (glycerol release); format: cell-based, dogs; details: Canis lupus familiaris, Adipocyte; for EC50: 1 h, glycerol release, canine adipocytes, read-out: ED50 (the source's name); for Emax: read-out: Intrinsic activity (%)
Description: Lipolytic Activity in Canine Fatty Cell
Adipose tissues in the omentum were collected from dogs and minced and washed. Krebs-Ringer buffer solution containing 1 mg/ml Collagenase (Sigma) and 1% of bovine serum albumin was added in an amount of 3 ml per one gram of the tissue. These cells were then incubated at 37° C. for 30 minutes with shaking and then undigested tissues were removed with a nylon filter. The resulting adipocytes were washed four times with Krebs-Ringer buffer, and then the concentration of cells was diluted to 2×10^5/ml with Krebs-Ringer buffer solution containing 4% of bovine serum albumin. These cells were transferred to Eppendorf tubes each in an amount of 300 μl.
Each 300 μl of a culture medium containing the test compounds were added to these tubes and was held at 37° C. for 1 hour whith shaking. Stimulation was stoped by cooling with ice. After centrifugation, the adipocytes were taken off with an aspirator, whereupon the glycerol was determined using F-KIT GLTCEROL (Behringer-Manheim).

[1] = cAMP, CHO cells with human β3, read-out: ED50 (the source's name)

T1 sequence (P13945 whole entry, the tested form may be a part): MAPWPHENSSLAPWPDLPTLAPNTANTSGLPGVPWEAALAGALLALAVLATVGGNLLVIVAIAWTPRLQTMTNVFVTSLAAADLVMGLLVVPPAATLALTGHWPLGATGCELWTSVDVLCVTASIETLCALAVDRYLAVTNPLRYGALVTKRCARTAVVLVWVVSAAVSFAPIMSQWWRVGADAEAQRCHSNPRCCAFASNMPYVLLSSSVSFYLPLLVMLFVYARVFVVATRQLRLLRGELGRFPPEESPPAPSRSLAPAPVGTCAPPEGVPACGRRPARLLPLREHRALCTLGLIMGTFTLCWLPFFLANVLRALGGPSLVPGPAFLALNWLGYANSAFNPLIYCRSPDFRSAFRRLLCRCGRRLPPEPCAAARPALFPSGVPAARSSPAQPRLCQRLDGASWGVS

SMILES | EC50 (human β3) [nM] | Emax (human β3) [%] | EC50 (canine adipocytes) [nM] | Emax (canine adipocytes) [%] | EC50 (human β3; [1]) [nM]
CS(=O)(=O)Nc1cc(C(O)CNCCOc2ccc3c(c2)oc2ccccc23)ccc1O (racemic) [Example 4, (±)-N-[5-[2-[2-(Dibenzofuran-3-yloxy)ethylamino]-1-hydroxyethyl]-2-hydroxyphenyl]methanesulfonamide Hydrochloride] | 0.52 | 80 | 0.7 | 88 | 
CC(C)NCC(O)c1ccc(O)c(O)c1 (stereo not shown) [Isoproterenol, reference compound] |  |  | 1.7 | 100 | 
CS(=O)(=O)Nc1cccc(C(O)CNCCOc2ccc3c(c2)oc2ccccc23)c1 (racemic) [Example 9, (±)-N-[3-[2-[2-(Dibenzofuran-3-yloxy)ethylamino]-1-hydroxyethl]phenyl]methanesulfonamide Hydrochloride] |  | 85 | 250 | 106 | 750
CC(=O)Nc1ccc2c(c1)Cc1cc(OCCNC[C@H](O)c3cccc(NS(C)(=O)=O)c3)ccc1-2 [Example 71, (R)-N-13-[2-[2-(9H-7-Acetylaminofluoren-2-yloxy)ethylamino]-1-hydroxyethyl]phenyl]methanesulfonamide Hydrochloride] |  | 97 | 110 | 88 | 180
CS(=O)(=O)Nc1cc(C(O)CNCCOc2ccc3c(c2)sc2ccccc23)ccc1O (racemic) [Example 38, (±)-N-[5-[2-[2-(Dibenzothiophen-3-yloxy)ethylamino]-1-hydroxyethyl]-2-hydroxyphenyl]methanesulfonamide Hydrochloride] | 0.006 | 76 | 2.6 | 103 | 
CS(=O)(=O)Nc1cc(C(O)CNCCOc2ccc3c(c2)Cc2cc(N)ccc2-3)ccc1O (racemic) [Example 52, (±)-N-[5-[2-[2-(9H-7-Aminofluoren-2-yloxy)ethylamino]-1-hydroxyethyl]-2-hydroxyphenyl]methanesulfonamide Hydrochloride] |  | 78 | 0.38 | 100 | 2.6
O[C@@H](CNCCOc1ccc2c(c1)[nH]c1ccccc12)c1ccccc1 [Example 32, (R)-2-[N-[2-(9H-Carbazol-2-yloxy)ethyl]amino]-1-phenylethanol Hydrochloride] | 1600 | 98 | 290 | 94 | 
COC(CNCCOc1ccc2c(c1)[nH]c1ccccc12)c1ccc(N)c(NS(C)(=O)=O)c1 (racemic) [Example 92, (±)-N-[5-[2-[2-(9H-Carbazol-2-yloxy)ethylamino]-1-methoxyethyl]-2-aminophenyl]methanesulfonamide Hydrochloride] | 280 | 81 | 1900 | 126 | 
CS(=O)(=O)Nc1cc(C(O)CNCCOc2ccc3c(c2)[nH]c2ccccc23)ccc1CO (racemic) [Example 84, (±)-N-[5-[2-[2-(9H-Carbazol-2-yloxy)ethylamino]-1-hydroxyethyl]-2-(hydroxymethyl)phenyl]methanesulfonamide] |  | 71 |  |  | 58
CS(=O)(=O)Nc1cc(C(O)CNCCOc2ccc3c(c2)oc2ccccc23)ccc1Cl (racemic) [Example 57, (±)-N-[5-[2-[2-(Dibenzofuran-3-yloxy)ethylamino]-1-hydroxyethyl]-2-chlorophenyl]methanesulfonamide Hydrochloride] | 230 | 68 |  |  | 
CN(C)S(=O)(=O)Nc1cccc(C(O)CNCCOc2ccc3c(c2)[nH]c2ccccc23)c1 (racemic) [Example 48, (±)-N′-[3-[2-[2-(9H-Carbazol-2-yloxy)ethylamino]-1-hydroxyethyl]phenyl]-N,N-dimethylsulfamide Hydrochloride] | 220 | 73 |  |  | 
CS(=O)(=O)Nc1cccc([C@@H](O)CNCCOc2ccc3c(c2)oc2ccccc23)c1 [Example 70, (R)-N-[3-[2-[2-(Dibenzofuran-3-yloxy)ethylamino]-1-hydroxyethyl]phenyl]methanesulfonamide Hydrochloride] | 300 | 76 |  |  | 
CS(=O)(=O)Nc1cc([C@H](O)CNCCOc2ccc3c(c2)[nH]c2ccccc23)ccc1F [Example 78, (S)-N-[5-[2-[2-(9H-Carbazol-2-yloxy)ethylamino]-1-hydroxyethyl]-2-fluorophenyl]methanesulfonamide Hydrochloride] | 51 | 110 |  |  | 
CS(=O)(=O)Nc1cc(C(O)CNCCOc2ccc3c(c2)[nH]c2ccccc23)ccc1N (racemic) [Example 82, (±)-N-[5-[2-[2-(9H-Carbazol-2-yloxy)ethylamino]-1-hydroxyethyl]-2-aminophenyl]methanesulfonamide Hydrochloride] | 2800 | 130 |  |  | 
CCN(CC)S(=O)(=O)Nc1cc(C(O)CNCCOc2ccc3c(c2)[nH]c2ccccc23)ccc1O (racemic) [Example 88, (±)-N′-[5-[2-[2-(9H-Carbazol-2-yloxy)ethylamino]-1-hydroxyethyl]-2-hydroxyphenyl]-N,N-diethylsulfamide Hydrochloride] | 390 | 86 |  |  | 
CS(=O)(=O)Nc1cc(C(O)CNCCOc2ccc3c(c2)[nH]c2ccccc23)ccc1Br (racemic) [Example 85, (±)-N-[5-[2-[2-(9H-Carbazol-2-yloxy)ethylamino]-1-hydroxyethyl]-2-bromophenyl]methanesulfonamide] |  | 70 |  |  | 56
CN(Cc1ccccc1)S(=O)(=O)c1cc(C(O)CNCCOc2ccc3c(c2)[nH]c2ccccc23)ccc1O (racemic) [Example 83, (±)-N-Methyl-N-benzyl-[5-[2-[2-(9H-carbazol-2-yloxy)ethylamino]-1-hydroxyethyl]-2-hydroxy]benzenesulfonamide Hydrochloride] |  | 79 |  |  | 740
CS(=O)(=O)Nc1cc([C@H](O)CNCCOc2ccc3c(c2)[nH]c2ccccc23)ccc1Cl [Example 80, (S)-N-[5-[2-[2-(9H-Carbazol-2-yloxy)ethylamino]-1-hydroxyethyl]-2-chlorophenyl]methanesulfonamide Hydrochloride] | 57 | 110 |  |  | 
CS(=O)(=O)Nc1cc(O)cc(C(O)CNCCOc2ccc3c(c2)[nH]c2ccccc23)c1 (racemic) [Example 62, (±)-N-[5-[2-[2-(9H-Carbazol-2-yloxy)ethylamino]-1-hydroxyethyl]-3-hydroxyphenyl]methanesulfonamide Hydrochloride] | 210 | 106 |  |  | 
O=CNc1cccc(C(O)CNCCOc2ccc3c(c2)[nH]c2ccccc23)c1 (racemic) [Example 17, (±)-N-[3-[2-[2-(9H-Carbazol-2-yloxy)ethylamino]-1-hydroxyethyl]phenyl]formamide Hydrochloride] | 910 | 53 |  |  | 
CS(=O)(=O)Nc1cc(C(O)CNCCOc2ccc3c(c2)oc2ccccc23)ccc1F (racemic) [Example 55, (±)-N-[5-[2-[2-(Dibenzofuran-3-yloxy)ethylamino]-1-hydroxyethyl]2-fluorophenyl]methanesulfonamide Hydrochloride] | 230 | 76 |  |  | 
Oc1ccc(C(O)CNCCOc2ccc3c(c2)[nH]c2ccccc23)cc1 (racemic) [Example 29, (±)-2-[N-[2-(9H-Carbazol-2-yloxy)ethyl]amino]-1-(4-hydroxyphenyl)ethanol Hydrochloride] | 250 | 120 |  |  | 
CS(=O)(=O)Nc1cccc([C@H](O)CNCCOc2ccc3c(c2)[nH]c2ccccc23)c1 [Example 15, (S)-N-[3-[2-[2-(9H-Carbazol-2-yloxy)ethylamino]-1-hydroxyethyl]phenyl]methanesulfonamide Hydrochloride] | 110 | 88 |  |  | 
CC(=O)Nc1ccc2c(c1)Cc1cc(OCCNCC(O)c3ccc(O)c(NS(=O)(=O)N(C)C)c3)ccc1-2 (racemic) [Example 45, (±)-N′-[5-[2-[2-(9H-7-Acetylaminofluoren-2-yloxy)ethylamino]-1-hydroxyethyl]-2-hydroxyphenyl]-N,N-dimethylsulfamide Hydrochloride] |  | 89 |  |  | 17
CC(COc1ccc2c(c1)[nH]c1ccccc12)NCC(O)c1cccc(NS(C)(=O)=O)c1 (racemic) [Example 11, (±)-N-[3-[2-[[1-(9H-Carbazol-2-yloxy)propan-2R-yl]amino]-1-hydroxyethyl]phenyl]methanesulfonamide Hydrochloride] |  | 95 |  |  | 26
